Data published in article PMC10150354, “Linearization of the Brevicidine and Laterocidine Lipopeptides Yields Analogues That Retain Full Antibacterial Activity” (Journal of Medicinal Chemistry, 2023).
≈ marks a conversion by molar mass, not a printed value. Where a SMILES comes first, the peptide text is derived from it. [ ]: non-standard residue; d: D form. The star is where a group is joined. ξ: configuration not given here. Octanoyl(7-Me) = CC(C)CCCCCC(=O)*; Hexanoyl(4ξ-Me) = CCC(C)CCC(=O)*; dOrn = NCCC[C@@H](N)C(=O)O; Orn = NCCC[C@H](N)C(=O)O

How the values were obtained:
E. coli (MCR-1) = assay type: cell-based, Escherichia coli; details: microbroth dilution per CLSI, MHB, 18 h at 37 °C, visual inspection, three technical replicates, E. coli 25922 carrying mcr-1
Outline: (§1)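 MIC taken as the lowest concentration with no visible growth after 18 h, 37 °C, shaking, three technical replicates. Peptides were serially diluted in MHB and received cells from TSB cultures at OD600 ~0.5, diluted to 2 × 10^5 CFU/mL (kanamycin selection for the mcr-1 E. coli), following CLSI guidelines.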

E. coli ATCC 25922 = assay type: cell-based, Escherichia coli; details: for Antibacterial activity (MIC) E. coli ATCC 25922: microbroth dilution per CLSI, MHB, 18 h at 37 °C, visual inspection, three technical replicates; for MIC (µg/mL) against E. coli (ATCC 25922): (Supplement 2)
Outline: as §1

K. pneumoniae ATCC 13883 = assay type: cell-based, Klebsiella pneumoniae; details: microbroth dilution per CLSI, MHB, 18 h at 37 °C, visual inspection, three technical replicates
Outline: as §1

A. baumannii ATCC 17961 = assay type: cell-based, Acinetobacter baumannii; details: microbroth dilution per CLSI, MHB, 18 h at 37 °C, visual inspection, three technical replicates
Outline: as §1

P. aeruginosa PAO1 = assay type: cell-based, Pseudomonas aeruginosa; details: microbroth dilution per CLSI, MHB, 18 h at 37 °C, visual inspection, three technical replicates
Outline: as §1

S. aureus USA300 = assay type: cell-based, Staphylococcus aureus; details: microbroth dilution per CLSI, MHB, 18 h at 37 °C, visual inspection, three technical replicates
Outline: as §1

| SMILES | Antibacterial activity (MIC) E. coli (MCR-1) (E. coli (MCR-1)) [µg/mL] | Antibacterial activity (MIC) E. coli ATCC 25922 (E. coli ATCC 25922) [µg/mL] | Antibacterial activity (MIC) K. pneumoniae ATCC 13883 (K. pneumoniae ATCC 13883) [µg/mL] | Antibacterial activity (MIC) A. baumannii ATCC 17961 (A. baumannii ATCC 17961) [µg/mL] | Antibacterial activity (MIC) P. aeruginosa PAO1 (P. aeruginosa PAO1) [µg/mL] | Antibacterial activity (MIC) S. aureus USA300 (S. aureus USA300) [µg/mL] | MIC (µg/mL) against E. coli (ATCC 25922) (E. coli ATCC 25922) [µg/mL] |
| --- | --- | --- | --- | --- | --- | --- | --- |
| CC[C@H](C)[C@H](NC(=O)[C@@H](NC(=O)[C@H](Cc1c[nH]c2ccccc12)NC(=O)[C@@H](CCCN)NC(=O)CNC(=O)[C@H](C)NC(=O)[C@@H](CCCN)NC(=O)[C@@H](Cc1c[nH]c2ccccc12)NC(=O)[C@@H](Cc1ccc(O)cc1)NC(=O)[C@@H](CO)NC(=O)CCCCCC(C)C)[C@@H](C)O)C(=O)N[C@@H](CC(N)=O)C(=O)NCC(=O)NCC(N)=O [LL(Ala5)-NH2 (33)] ({Octanoyl(7-Me)}-[dS][dY][dW][dOrn]AG[dOrn]WTINGG-NH2) | >32 | 32 | >32 | >32 | 32 | >32 | – |
| CC[C@H](C)[C@H](NC(=O)[C@H](CO)NC(=O)[C@H](Cc1c[nH]c2ccccc12)NC(=O)[C@@H](CCCN)NC(=O)CNC(=O)[C@H](CCCN)NC(=O)[C@@H](CCCN)NC(=O)[C@@H](Cc1c[nH]c2ccccc12)NC(=O)[C@@H](Cc1ccc(O)cc1)NC(=O)[C@@H](CO)NC(=O)CCCCCC(C)C)C(=O)N[C@@H](CC(N)=O)C(=O)NCC(=O)NCC(N)=O [LL(Ser9)-NH2 (46)] ({Octanoyl(7-Me)}-[dS][dY][dW][dOrn][Orn]G[dOrn]WSINGG-NH2) | 8 | 4 | 4 | 8 | 4 | >32 | 4 (≈ 2.49 µM) |
| CC[C@H](C)[C@H](NC(=O)[C@@H](NC(=O)[C@H](Cc1c[nH]c2ccccc12)NC(=O)[C@@H](CCCN)NC(=O)CNC(=O)[C@H](CCCN)NC(=O)[C@@H](CCCN)NC(=O)[C@@H](Cc1c[nH]c2ccccc12)NC(=O)[C@@H](Cc1ccc(O)cc1)NC(=O)[C@@H](CO)NC(=O)CCCCCC(C)C)[C@@H](C)O)C(=O)N[C@@H](CC(N)=O)C(=O)NCC(=O)NCC(=O)O [LL-OH (4)] ({Octanoyl(7-Me)}-[dS][dY][dW][dOrn][Orn]G[dOrn]WTINGG-OH) | 16 | 8 | 8 to 16 | 16 | 8 | >32 | – |
| CC[C@H](C)[C@H](NC(=O)[C@@H](NC(=O)[C@H](Cc1c[nH]c2ccccc12)NC(=O)[C@@H](CCCN)NC(=O)CNC(=O)[C@H](CCCN)NC(=O)[C@@H](C)NC(=O)[C@@H](Cc1c[nH]c2ccccc12)NC(=O)[C@@H](Cc1ccc(O)cc1)NC(=O)[C@@H](CO)NC(=O)CCCCCC(C)C)[C@@H](C)O)C(=O)N[C@@H](CC(N)=O)C(=O)NCC(=O)NCC(N)=O [LL(D-Ala4)-NH2 (32)] ({Octanoyl(7-Me)}-[dS][dY][dW][dA][Orn]G[dOrn]WTINGG-NH2) | >32 | >32 | >32 | 32 | >32 | >32 | – |
| CC[C@H](C)[C@H](NC(=O)[C@H](CCC(N)=O)NC(=O)[C@H](Cc1c[nH]c2ccccc12)NC(=O)[C@@H](CCCN)NC(=O)CNC(=O)[C@H](CCCN)NC(=O)[C@@H](CCCN)NC(=O)[C@@H](Cc1c[nH]c2ccccc12)NC(=O)[C@@H](Cc1ccc(O)cc1)NC(=O)[C@@H](CO)NC(=O)CCCCCC(C)C)C(=O)N[C@@H](CC(N)=O)C(=O)NCC(=O)NCC(N)=O [LL(Gln9)-NH2 (48)] ({Octanoyl(7-Me)}-[dS][dY][dW][dOrn][Orn]G[dOrn]WQINGG-NH2) | 8 | 4 | 4 | 8 | 4 | >32 | 4 (≈ 2.43 µM) |
| CC[C@H](C)[C@H](NC(=O)[C@@H](NC(=O)[C@H](Cc1c[nH]c2ccccc12)NC(=O)[C@@H](C)NC(=O)CNC(=O)[C@H](CCCN)NC(=O)[C@@H](CCCN)NC(=O)[C@@H](Cc1c[nH]c2ccccc12)NC(=O)[C@@H](Cc1ccc(O)cc1)NC(=O)[C@@H](CO)NC(=O)CCCCCC(C)C)[C@@H](C)O)C(=O)N[C@@H](CC(N)=O)C(=O)NCC(=O)NCC(N)=O [LL(D-Ala7)-NH2 (35)] ({Octanoyl(7-Me)}-[dS][dY][dW][dOrn][Orn]G[dA]WTINGG-NH2) | >32 | >32 | >32 | 32 | 32 | >32 | – |
| CCC(C)CCC(=O)N[C@H](CC(N)=O)C(=O)N[C@H](Cc1ccc(O)cc1)C(=O)N[C@H](Cc1c[nH]c2ccccc12)C(=O)N[C@H](CCCN)C(=O)N[C@@H](CCCN)C(=O)NCC(=O)N[C@H](CCCN)C(=O)N[C@@H](Cc1c[nH]c2ccccc12)C(=O)N[C@H](C(=O)N[C@H](C(N)=O)[C@@H](C)CC)[C@@H](C)O (some centres unmarked) [Δ11–12LB-NH2 (11)] ({Hexanoyl(4ξ-Me)}-[dN][dY][dW][dOrn][Orn]G[dOrn]WTI-NH2) | 4 to 8 | 4 | 2 | 8 | 2 | >32 | – |
| CC[C@H](C)[C@H](NC(=O)[C@@H](NC(=O)[C@H](Cc1c[nH]c2ccccc12)NC(=O)[C@@H](CCCN)NC(=O)CNC(=O)[C@H](CCCN)NC(=O)[C@@H](CCCN)NC(=O)[C@@H](Cc1c[nH]c2ccccc12)NC(=O)[C@@H](Cc1ccc(O)cc1)NC(=O)[C@@H](CO)NC(=O)CCCCCC(C)C)[C@@H](C)O)C(=O)N[C@@H](CC(N)=O)C(=O)N[C@@H](C)C(=O)NCC(N)=O [LL(Ala12)-NH2 (40)] ({Octanoyl(7-Me)}-[dS][dY][dW][dOrn][Orn]G[dOrn]WTINAG-NH2) | 8 | 8 | 8 | 8 | 8 | >32 | – |
| CC[C@H](C)[C@H](NC(=O)[C@H](C)NC(=O)[C@H](Cc1c[nH]c2ccccc12)NC(=O)[C@@H](CCCN)NC(=O)CNC(=O)[C@H](CCCN)NC(=O)[C@@H](CCCN)NC(=O)[C@@H](Cc1c[nH]c2ccccc12)NC(=O)[C@@H](Cc1ccc(O)cc1)NC(=O)[C@@H](CO)NC(=O)CCCCCC(C)C)C(=O)N[C@@H](CC(N)=O)C(=O)NCC(=O)NCC(N)=O [LL(Ala9)-NH2 (37)] ({Octanoyl(7-Me)}-[dS][dY][dW][dOrn][Orn]G[dOrn]WAINGG-NH2) | 4 to 8 | 4 | 4 | 8 | 4 | >32 | – |
| CC(C)CCCCCC(=O)N[C@H](CO)C(=O)N[C@H](Cc1ccc(O)cc1)C(=O)N[C@H](Cc1c[nH]c2ccccc12)C(=O)N[C@H](CCCN)C(=O)N[C@@H](CCCN)C(=O)NCC(=O)N[C@H](CCCN)C(=O)N[C@@H](Cc1c[nH]c2ccccc12)C(=O)N[C@H](C(N)=O)[C@@H](C)O [Δ10–13LL-NH2 (14)] ({Octanoyl(7-Me)}-[dS][dY][dW][dOrn][Orn]G[dOrn]WT-NH2) | 32 | >32 | >32 | 32 | >32 | >32 | – |
